Consider 4 molecules from patent EP2199292A1, “7-azaindirubins, 7'-azaindirubins, 7-7'-diazaindirubin and the corresponding 3'-oxime ether derivates: production thereof, their production and use as a medicament” (Technische Universität Kaiserslautern, priority 2008, dated 2010).

For assay [1], the system named is human cancer cell lines. Briefly: Antiproliferative activity against human cancer cell lines, compared with indirubin. Format: cell-based. Conditions: as compared to the parent molecule. On the procedure:
(§1) The antiproliferative activity was determined using the Sulforhodamin B assay (SRB assay) as reported previously (Vatter et al. 2005, Int. J. Clin. Pharmacal.Ther. 43, 607). Table 1: Inhibition of tumor cell proliferation, SRB assay.

The subject of assay [2] is murine C6 glioblastoma cells. Conditions: compared with parent compound 5-methylindirubin; WO 03/070703; cited from earlier work.
For assay [3], the system named is MCF7. Briefly: Inhibition of tumor cell proliferation, Sulforhodamin B assay (SRB assay), MCF7. It is filed as cell-based. Conditions: Homo sapiens. On the procedure:
as §1
(In general: The SRB assay estimates cell density from bound dye.)

Assay [4] deals with HT29. Briefly: Inhibition of tumor cell proliferation, Sulforhodamin B assay (SRB assay), HT29. It is filed as cell-based. The conditions noted are these: Homo sapiens, HT-29. The procedure:
as §1

Like-named read-outs stand apart in the source and are kept apart here.

On to `O=C1Nc2ncccc2/C1=C1/Nc2ccccc2C1=O` [Example 12, 7-Azaindirubin], for which the antiproliferative activity result in assay [1] was “markedly augmented”.

As for `O=C1Nc2ccccc2C1=C1Nc2ncccc2C1=O` [E843, 7'-Azaindirubin], the antiproliferative activity entry in assay [1] was “markedly augmented”.

`Cc1cc2c(cc1O)NC(=O)C2=C1Nc2ccccc2C1=O`: the “inhibition of murine C6 glioblastoma cells” value in assay [2] was “as effective as the parent compound”.

As for `O=C1Nc2ncccc2C1=C1Nc2ncccc2C1=O` [E864, 7,7'-Diazaindirubin], the IC50 was at least 2 nM in assay [3] (MCF7, MCF-7 breast cancer cells, IC50 values ranging down to, read-out: inhibition of proliferation IC50); 7 nM in assay [3] (MCF7, SRB assay, read-out: Inhibition of cell proliferation IC50); 5 nM in assay [4] (HT29, SRB assay, read-out: Inhibition of cell proliferation IC50); at least 2 nM in assay [4] (HT29 colon tumor cells, IC50 values ranging down to, read-out: inhibition of proliferation IC50).
